Experimental data as given in patent US20180265423A1, “Pesticide Dispersion in Concentrated Aqueous Fertilizer Solution” (priority 2014, published 2018).
Where two headings read alike, the source gives them in different places.

Columns and labels:
[1] = 30 wt % captan suspension in 10-34-0: flow and storage stability (Example 12); format: physicochemical
Method: (§1) 10-34-0 fertilizer (56% ammonium polyphosphate by Plant Food Company Inc.) and Phospholan PS-413 surfactant were combined in a container and mixed thoroughly. Captan fungicide was added to the mixture and then the resulting combination was homogenized. The components were added in amounts to provide a composition containing 69.3 wt % of the 10-34-0 fertilizer solution (56% solution), 1.0 wt % surfactant and 29.7 wt % Captan fungicide.

[2] = Use alone, dilution with water or dispersion of the suspensions into fertilizer concentrates; format: physicochemical; details: 10-34-0, URAN 32, URAN 28 and 28-40% AMS
[3] = format: physicochemical; details: for crystal growth in the fertilizer solutions tested: review of table 2
Source text: Crystal formation in a suspension concentrate is a complex phenomenon. It is believed that if the solubility of the suspended solid chemical is high in the medium, the suspension concentrate is prone to form crystals of the suspended solid chemical in storage. […] The concentrations of the solid pesticides used in this example were low (at a typical ready-to-apply concentration range). If a solid pesticide forms crystals in such a low concentration, it is not suitable for a ready-to-apply pesticide suspension and mostly likely will not be suitable for a more concentrated suspension in fertilizer. […] By “not suitable” is meant that although it may work to some extent, it is not a good candidate for the pesticide SC.
Samples were prepared by adding the components followed by hand-shaking.

[4] = Quick screening of crystal growth potential in fertilizer concentrates and water, solid pesticides containing a carboxylic acid group (Example 2); format: physicochemical; details: for suitability for suspension in fertilizer solutions: review of table 3; for Comment: crystal growth: between 0 C. and 40 C.
Method: Samples were prepared by adding the components followed by hand-shaking. Samples were placed at 0° C. and observation was made after 1 day, unless otherwise specified.

[5] = as above; format: physicochemical; details: 1 wt % powder pesticide, 98 wt % 10-34-0, 1 wt % Witcolate D-510; between 0 C. and 40 C.
[6] = format: physicochemical
Method: as §1, with “poly phosphate” for “polyphosphate”, “HE-6614” for “PS-413”, “Trifloxystrobin” for “Captan”, “62.38” for “69.3”, “[…]” for “29.7”

[7] = Storage stability of 40% clothianidin SC in 10-34-0 with wetting agent Witcolate D-510 (Example 5); format: physicochemical; details: 10-34-0 with Witcolate D-510
Method: The test samples were prepared by adding 60 grams of 10-34-0 fertilizer (from Plant Food) to a bottle. Then various amounts of Witcolate D-510 (2-ethylhexyl sulfate) were added to the 10-34-0 fertilizer and mixed well. Finally, 40 grams of clothianidin (technical grade) was added to the mixture and mixed well by shaking by hand.

[8] = Brookfield viscosity of 50% clothianidin in 50% URAN 32; format: physicochemical; details: #64 spindle
Source text: (§2) In other experiments, 0.3% of a pH adjusting agent (40 wt % Citric acid), was included in the SC sample (homogenized sample) and no noticeable effect was observed on stability. Viscosity measurements were made with a Brookfield viscometer at various speeds (rpm) at room temperature with a #64 spindle. This sample was very viscous but it was highly shear-thinning.

[9] = Suspension of clothianidin in 10-34-0 aqueous fertilizer, effect of concentration on stability (Example 3); format: physicochemical; details: review of table 4
Method: Various amounts of clothianidin were added to 10-34-0 fertilizer. Samples were shaken by hand until homogeneous.

[10] = Stability of 50% clothianidin in 50% URAN 32 fertilizer (Example 6); format: physicochemical
Method: 0.5 g Witcolate D-510 surfactant was added into 100 g URAN 32 fertilizer solution (50 wt % URAN 32 in water). […] Then 100 g clothianidin was added to the resulting solution and mixed well by hand-shaking. This sample was stable and had about 10% top clear with a smooth bottom suspension after 2 weeks at 40° C.
as §2

[11] = same SC, after a week at 50° C.
[12] = 1 wt % powder pesticide in 99 wt % 10-34-0, no wetting agent
[13] = 1 wt % powder pesticide in 99 wt % 40% AMS, no wetting agent
[14] = 1 wt % powder pesticide in 99 wt % URAN 32, no wetting agent
[15] = 1 wt % powder pesticide in 99 wt % Water, no wetting agent
[16] = 1 wt % powder pesticide, 98 wt % 10-34-0, 1 wt % Witcolate D-510
[17] = powder pesticide (glyphosate acid 2, 2,4-D acid 1.3, others 1 wt %) in 10-34-0, no wetting agent
[18] = powder pesticide (glyphosate acid 2, 2,4-D acid 1.3, others 1 wt %) in 10-34-0, no wetting agent, 0° C., 1 day unless otherwise specified
[19] = powder pesticide (glyphosate acid 2, 2,4-D acid 1.3, others 1 wt %) in 40% AMS, no wetting agent, 0° C., 1 day unless otherwise specified
[20] = powder pesticide (glyphosate acid 2, 2,4-D acid 1.3, others 1 wt %) in URAN 32, no wetting agent, 0° C., 1 day unless otherwise specified
[21] = 1 wt % powder pesticide, 98 wt % 40% AMS, 1 wt % Witcolate D-510
[22] = 1 wt % powder pesticide, 98 wt % URAN 32, 1 wt % Witcolate D-510
[23] = 1 wt % powder pesticide, 98 wt % Water, 1 wt % Witcolate D-510

SMILES: O=C1C2CC=CCC2C(=O)N1SC(Cl)(Cl)Cl (centres unmarked) [Captan]
- flow and stability of the resulting SC ([1]; 29.7 wt % Captan, 69.3 wt % 10-34-0 solution, 1.0 wt % Phospholan PS-413, homogenized): easily flowable and stable
- flow at 2° C. ([1]; same SC, 2° C.): still able to flow
- phase separation [1, 11]: no visible phase separation
- used alone, diluted with water, dispersed to a fertilizer concentrate ([2]; 29.7 wt % Captan SC in 10-34-0, gentle stirring): without forming crystals or coagulation
- Comment: powder sank or floated [3, 12]: 0-40 °C Powder sank.
- Comment: suitability [3, 12]: Suitable
- Comment: powder sank or floated [3, 13]: 0-40 °C Powder sank.
- Comment: suitability [3, 13]: Suitable
- Comment: powder sank or floated [3, 14]: 0-40 °C Powder sank.
- Comment: suitability [3, 14]: Suitable
- Comment: powder sank or floated [3, 15]: 0-40 °C Powder sank.
- Comment: suitability [3, 15]: Suitable
- crystal growth in the fertilizer solutions tested [3]: did not have crystal growth

SMILES: O=C(O)c1nc(Cl)ccc1Cl [Clopyralid]
- Comment: suitability [4, 16]: Suitable
- Comment: suitability [4, 17]: Suitable
- Comment: crystal growth or other change [4, 18]: No crystal growth
- Comment: dissolution [4, 18]: Not dissolved
- Comment: powder sank or floated [4, 18]: Powder floated
- Comment: crystal growth or other change [4, 19]: Crystal growth at room temp
- Comment: dissolution [4, 19]: Not dissolved
- Comment: powder sank or floated [4, 19]: Powder sank
- Comment: suitability ([4]; powder pesticide (glyphosate acid 2, 2,4-D acid 1.3, others 1 wt %) in URAN 32, no wetting agent): Not suitable
- Comment: dissolution [4, 20]: Dissolved
- Comment: suitability ([4]; powder pesticide (glyphosate acid 2, 2,4-D acid 1.3, others 1 wt %) in Water, no wetting agent): Not suitable
- Comment: dissolution ([4]; powder pesticide (glyphosate acid 2, 2,4-D acid 1.3, others 1 wt %) in Water, no wetting agent, 0° C., 1 day unless otherwise specified): Dissolved
- suitability for suspension in fertilizer solutions [4]: may not be suitable
- Comment: crystal growth [5]: No crystal growth between 0 C.

SMILES: Nc1c(Cl)c(Cl)nc(C(=O)O)c1Cl [Picloram]
- Comment: suitability [4, 16]: some floated. Suitable
- Comment: powder sank or floated [4, 21]: Powder sank
- Comment: suitability [4, 21]: Suitable
- Comment: crystal growth [4, 21]: No crystal growth between 0 C.
- Comment: powder sank or floated [4, 22]: Powder sank
- Comment: suitability [4, 22]: Suitable
- Comment: crystal growth [4, 22]: No crystal growth between 0 C.
- Comment: powder sank or floated [4, 23]: Powder sank
- Comment: suitability [4, 23]: Suitable
- Comment: crystal growth [4, 23]: No crystal growth between 0 C.
- Comment: suitability [4, 17]: Suitable
- Comment: crystal growth or other change [4, 18]: No crystal growth between 0 C.
- Comment: powder sank or floated [4, 18]: Powder sank
- Comment: suitability ([4]; powder pesticide (glyphosate acid 2, 2,4-D acid 1.3, others 1 wt %) in 40% AMS, no wetting agent): Suitable
- Comment: crystal growth or other change [4, 19]: No crystal growth between 0 C.
- Comment: powder sank or floated [4, 19]: Powder sank
- Comment: dissolution [4, 20]: Powder almost dissolved
- suitability for suspension in fertilizer solutions [4]: appears to be suitable
- Comment: crystal growth [5]: No crystal growth between 0 C.

SMILES: CON=C(C(=O)OC)c1ccccc1CON=C(C)c1cccc(C(F)(F)F)c1 [Trifloxystrobin]
- used alone, diluted with water, dispersed to a fertilizer concentrate ([2]; 36.63 wt % Trifloxystrobin SC in 10-34-0): without forming crystal and coagulation
- Comment: powder sank or floated [3, 12]: 0-40 °C Powder sank.
- Comment: suitability [3, 12]: Suitable
- Comment: powder sank or floated [3, 13]: 0-40 °C Powder sank.
- Comment: suitability [3, 13]: Suitable
- Comment: powder sank or floated [3, 14]: 0-40 °C Powder sank.
- Comment: suitability [3, 14]: Suitable
- Comment: powder sank or floated [3, 15]: 0-40 °C Powder sank.
- Comment: suitability [3, 15]: Suitable
- crystal growth in the fertilizer solutions tested [3]: did not have crystal growth
- flow and stability of the resulting SC [6]: easily flowable and stable
- flow at 2° C. ([6]; same SC, 2° C.): still able to flow
- clear phase at the bottom [6, 11]: less than 2.5%
- re-mixing ([6]; same SC, after a week at 50° C., inverting the container): remixed easily

SMILES: CN/C(=N\[N+](=O)[O-])NCc1cnc(Cl)s1 [clothianidin]
- clothianidin concentration above which the SC was difficult to prepare [7]: greater than 40 wt %
- Viscosity, mPa-s, 24° C. ([8]; 1 RPM): 10200 mPa-s
- Viscosity, mPa-s, 24° C. ([8]; 2 RPM): 6900 mPa-s
- Viscosity, mPa-s, 24° C. ([8]; 4 RPM): 3900 mPa-s
- Viscosity, mPa-s, 24° C. ([8]; 10 RPM): 2300 mPa-s
- Viscosity, mPa-s, 24° C. ([8]; 20 RPM): 1500 mPa-s
- Viscosity, mPa-s, 24° C. ([8]; 50 RPM): 1300 mPa-s
- Viscosity, mPa-s, 24° C. ([8]; 100 RPM): 1200 mPa-s
- suspension of the powder in 10-34-0 [9]: without crystal formation and without coagulation
- stability ([10]; 100 g clothianidin, 100 g URAN 32 fertilizer solution, 0.5 g Witcolate D-510, hand-shaking): stable
- behaviour of the solid in URAN 32 ([10]; URAN 32, all concentrations): sank to the bottom at all concentrations
- clothianidin concentration above which a paste resulted ([10]; URAN 32 system): higher than 55 wt %
- separation ([10]; same composition, homogenization method): did not show noticeable separation
- top clear ([10]; same sample, hand-shaking, after 2 weeks at 40° C.): about 10%
